Our source for the melting point, IC50 and GI50 values is patent publication US8470786B2, “Pyrroloquinolinyl-pyrrolidine-2,5-dione compositions and methods for preparing and using same” (ArQule, Inc., priority 2010, dated 2013).

A word on the melting point: it is the temperature, or range, at which the solid turns liquid. One may read the IC50 as the concentration needed to halve the response being measured. Read a high IC50 as a need for much substance. One may read the GI50 as the concentration at which growth is held to half of that of the control.

In one series the target is c-Met (Homo sapiens, UniProt P08581). Nature of the series: c-Met autophosphorylation inhibition assay (biochemical). As to conditions: method per J. Biol. Chem. 286(23), 20666-20676. On the procedure: c-Met Autophosphorylation Inhibition assay was carried out according to Journal of Biological Chemistry 286(23), 20666-20676 (Jun. 10, 2010).
c-Met, sequence (P08581 25-1390): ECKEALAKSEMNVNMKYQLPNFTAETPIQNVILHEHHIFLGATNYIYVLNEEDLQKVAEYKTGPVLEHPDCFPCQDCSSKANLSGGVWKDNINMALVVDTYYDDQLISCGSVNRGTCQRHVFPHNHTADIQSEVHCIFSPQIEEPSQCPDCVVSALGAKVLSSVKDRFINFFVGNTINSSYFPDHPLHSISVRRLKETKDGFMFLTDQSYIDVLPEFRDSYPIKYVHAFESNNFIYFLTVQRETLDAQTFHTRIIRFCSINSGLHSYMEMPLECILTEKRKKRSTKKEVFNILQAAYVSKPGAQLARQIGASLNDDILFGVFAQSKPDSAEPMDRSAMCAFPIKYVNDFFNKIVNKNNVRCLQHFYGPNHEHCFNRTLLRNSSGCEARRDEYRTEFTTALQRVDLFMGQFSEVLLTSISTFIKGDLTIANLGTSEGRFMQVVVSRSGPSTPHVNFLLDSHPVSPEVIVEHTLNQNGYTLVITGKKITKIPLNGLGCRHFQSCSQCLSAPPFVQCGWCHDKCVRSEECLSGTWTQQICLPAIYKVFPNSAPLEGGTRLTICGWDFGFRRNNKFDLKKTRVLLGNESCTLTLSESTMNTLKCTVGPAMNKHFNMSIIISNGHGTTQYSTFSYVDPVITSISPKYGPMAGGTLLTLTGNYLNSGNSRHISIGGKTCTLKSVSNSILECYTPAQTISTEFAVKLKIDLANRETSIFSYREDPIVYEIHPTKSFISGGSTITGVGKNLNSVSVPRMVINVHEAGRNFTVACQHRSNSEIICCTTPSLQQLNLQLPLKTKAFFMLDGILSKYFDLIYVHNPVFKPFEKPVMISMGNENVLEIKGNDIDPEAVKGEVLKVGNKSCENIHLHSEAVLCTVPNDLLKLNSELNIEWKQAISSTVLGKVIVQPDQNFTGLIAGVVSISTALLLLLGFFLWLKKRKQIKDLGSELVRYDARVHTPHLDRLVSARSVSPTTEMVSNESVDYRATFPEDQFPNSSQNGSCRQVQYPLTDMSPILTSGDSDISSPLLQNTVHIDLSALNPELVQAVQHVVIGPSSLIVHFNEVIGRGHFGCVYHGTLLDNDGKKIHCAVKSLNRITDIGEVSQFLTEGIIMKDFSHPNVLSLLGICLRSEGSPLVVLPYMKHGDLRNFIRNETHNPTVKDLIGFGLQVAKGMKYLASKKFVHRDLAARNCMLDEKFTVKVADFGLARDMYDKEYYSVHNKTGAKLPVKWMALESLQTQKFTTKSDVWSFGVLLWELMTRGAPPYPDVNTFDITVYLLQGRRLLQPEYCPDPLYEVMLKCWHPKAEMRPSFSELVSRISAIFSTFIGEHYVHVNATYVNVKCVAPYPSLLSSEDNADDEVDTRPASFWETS
The next series relates to HT29. Nature of the series: Cell proliferation analysis (MTS assay). It is filed as cell-based. As to conditions: Homo sapiens, HT-29, HT29 cells, treated for 72 hours, read-out: Antiproliferative activity (HT29 MTS GI50). On the procedure:
Cell survival was determined by the MTS assay. Briefly, cells were plated in a 96-well plate at 2,000-10,000 cells per well, cultured for 24 hours in complete growth medium, and then treated with various drugs and drug combinations for 72 hours. MTS was added and incubated for 4 hour, followed by assessment of cell viability using the microplate reader at 570 nm. Data were normalized to untreated controls and analyzed.
Background: Tetrazolium dyes change colour on reduction, which living cells bring about.

Structures are written as SMILES.

Molecule `O=C1NC(=O)[C@@H](c2cn3c4c(cccc24)CCC3)[C@@H]1c1c[nH]c2cc(O)ccc12` (racemic) [Compound 1, (rac)-trans-3-(5,6-dihydro-4H-pyrrolo[3,2,1-ij]quinolin-1-yl)-4-(6-hydroxy-1H-indol-3-yl)pyrrolidine-2,5-dione] came in with a melting point of 167 to 170 °C.
The same measure, in the same setting: next, `O=C1NC(=O)[C@@H](c2cn3c4c(cccc24)C(O)CC3)[C@@H]1c1c[nH]c2ccccc12` (mixture of isomers) [Compound 3, (rac)-trans-3-(6-hydroxy-5,6-dihydro-4H-pyrrolo[3,2,1-ij]quinolin-1-yl)-4-(1H-indol-3-yl)pyrrolidine-2,5-dione]: 153 to 155 °C.
The molecule `O=C1CCn2cc([C@@H]3C(=O)NC(=O)[C@H]3c3c[nH]c4ccccc34)c3cccc1c32` (racemic) [Compound 8, (3R,4R)-3-(1H-indol-3-yl)-4-(6-oxo-5,6-dihydro-4H-pyrrolo[3,2,1-ij]quinolin-1-yl)pyrrolidine-2,5-dione] came in with an IC50 against c-Met of 1600 ± 250 nM. Besides, the GI50 with HT29 was 680 ± 50 nM.
On the same counts, the results for `O=C1NC(=O)[C@@H](c2cn3c4c(cccc24)CCC3=O)[C@@H]1c1c[nH]c2ccccc12` (racemic) [Compound 9, (3R,4R)-3-(1H-indol-3-yl)-4-(4-oxo-5,6-dihydro-4H-pyrrolo[3,2,1-ij]quinolin-1-yl)pyrrolidine-2,5-dione] are 1000 nM and 3100 ± 240 nM.
On the same counts, the results for `O=C1NC(=O)[C@@H](c2cn3c4c(cccc24)[C@@H](O)CC3)[C@@H]1c1c[nH]c2ccccc12` [Compound 10, (3R,4R)-3-((S)-6-hydroxy-5,6-dihydro-4H-pyrrolo[3,2,1-ij]quinolin-1-yl)-4-(1H-indol-3-yl)pyrrolidine-2,5-dione] are 2000 ± 210 nM and 1500 ± 210 nM.
Regarding `O=C1NC(=O)[C@@H](c2cn3c4c(cccc24)[C@H](O)CC3)[C@@H]1c1c[nH]c2ccccc12` [Compound 11, (3R,4R)-3-((R)-6-hydroxy-5,6-dihydro-4H-pyrrolo[3,2,1-ij]quinolin-1-yl)-4-(1H-indol-3-yl)pyrrolidine-2,5-dione], the IC50 against c-Met is 2600 ± 70 nM. In the series with HT29, the GI50 was determined as 3700 ± 420 nM.
As for `O=C1NC(=O)[C@H](c2cn3c4c(cccc24)[C@H](O)CC3)[C@H]1c1c[nH]c2ccccc12` [Compound 12, (3S,4S)-3-((R)-6-hydroxy-5,6-dihydro-4H-pyrrolo[3,2,1-ij]quinolin-1-yl)-4-(1H-indol-3-yl)pyrrolidine-2,5-dione], the IC50 on c-Met was > 30000 nM. Besides, the GI50 in the series on HT29 stood at 31000 ± 7100 nM.
The corresponding values for `O=C1NC(=O)[C@H](c2cn3c4c(cccc24)[C@@H](O)CC3)[C@H]1c1c[nH]c2ccccc12` [Compound 13, (3S,4S)-3-((S)-6-hydroxy-5,6-dihydro-4H-pyrrolo[3,2,1-ij]quinolin-1-yl)-4-(1H-indol-3-yl)pyrrolidine-2,5-dione] are > 30000 nM and 75000 ± 33000 nM.
